Assay results published in US9340590B2 (priority 2011, dated 2016).
Positions of bridges follow the written chain, without caps; N, C: chain ends. Non-standard residues stand in square brackets, D forms with d. Residues, ends and D or L forms follow the SMILES beside them. NMeW = CN[C@@H](Cc1c[nH]c2ccccc12)C(=O)O; Phg = N[C@H](C(=O)O)c1ccccc1

Tests used:
Assay in all cases: cell-based
hNav1.5 = hNav1.5 (Homo sapiens, UniProt Q14524); details: Table 26; IonWorks Quattro, use; […]; read-out: IWQ Use Nav1.5
hNav1.7 = hNav1.7 (Homo sapiens, UniProt Q15858); format: cell-based; details: Table 26; IonWorks Quattro, use; […]; read-out: IWQ Use Nav1.7
Sequence of hNav1.7 (Q15858 whole entry, looked up): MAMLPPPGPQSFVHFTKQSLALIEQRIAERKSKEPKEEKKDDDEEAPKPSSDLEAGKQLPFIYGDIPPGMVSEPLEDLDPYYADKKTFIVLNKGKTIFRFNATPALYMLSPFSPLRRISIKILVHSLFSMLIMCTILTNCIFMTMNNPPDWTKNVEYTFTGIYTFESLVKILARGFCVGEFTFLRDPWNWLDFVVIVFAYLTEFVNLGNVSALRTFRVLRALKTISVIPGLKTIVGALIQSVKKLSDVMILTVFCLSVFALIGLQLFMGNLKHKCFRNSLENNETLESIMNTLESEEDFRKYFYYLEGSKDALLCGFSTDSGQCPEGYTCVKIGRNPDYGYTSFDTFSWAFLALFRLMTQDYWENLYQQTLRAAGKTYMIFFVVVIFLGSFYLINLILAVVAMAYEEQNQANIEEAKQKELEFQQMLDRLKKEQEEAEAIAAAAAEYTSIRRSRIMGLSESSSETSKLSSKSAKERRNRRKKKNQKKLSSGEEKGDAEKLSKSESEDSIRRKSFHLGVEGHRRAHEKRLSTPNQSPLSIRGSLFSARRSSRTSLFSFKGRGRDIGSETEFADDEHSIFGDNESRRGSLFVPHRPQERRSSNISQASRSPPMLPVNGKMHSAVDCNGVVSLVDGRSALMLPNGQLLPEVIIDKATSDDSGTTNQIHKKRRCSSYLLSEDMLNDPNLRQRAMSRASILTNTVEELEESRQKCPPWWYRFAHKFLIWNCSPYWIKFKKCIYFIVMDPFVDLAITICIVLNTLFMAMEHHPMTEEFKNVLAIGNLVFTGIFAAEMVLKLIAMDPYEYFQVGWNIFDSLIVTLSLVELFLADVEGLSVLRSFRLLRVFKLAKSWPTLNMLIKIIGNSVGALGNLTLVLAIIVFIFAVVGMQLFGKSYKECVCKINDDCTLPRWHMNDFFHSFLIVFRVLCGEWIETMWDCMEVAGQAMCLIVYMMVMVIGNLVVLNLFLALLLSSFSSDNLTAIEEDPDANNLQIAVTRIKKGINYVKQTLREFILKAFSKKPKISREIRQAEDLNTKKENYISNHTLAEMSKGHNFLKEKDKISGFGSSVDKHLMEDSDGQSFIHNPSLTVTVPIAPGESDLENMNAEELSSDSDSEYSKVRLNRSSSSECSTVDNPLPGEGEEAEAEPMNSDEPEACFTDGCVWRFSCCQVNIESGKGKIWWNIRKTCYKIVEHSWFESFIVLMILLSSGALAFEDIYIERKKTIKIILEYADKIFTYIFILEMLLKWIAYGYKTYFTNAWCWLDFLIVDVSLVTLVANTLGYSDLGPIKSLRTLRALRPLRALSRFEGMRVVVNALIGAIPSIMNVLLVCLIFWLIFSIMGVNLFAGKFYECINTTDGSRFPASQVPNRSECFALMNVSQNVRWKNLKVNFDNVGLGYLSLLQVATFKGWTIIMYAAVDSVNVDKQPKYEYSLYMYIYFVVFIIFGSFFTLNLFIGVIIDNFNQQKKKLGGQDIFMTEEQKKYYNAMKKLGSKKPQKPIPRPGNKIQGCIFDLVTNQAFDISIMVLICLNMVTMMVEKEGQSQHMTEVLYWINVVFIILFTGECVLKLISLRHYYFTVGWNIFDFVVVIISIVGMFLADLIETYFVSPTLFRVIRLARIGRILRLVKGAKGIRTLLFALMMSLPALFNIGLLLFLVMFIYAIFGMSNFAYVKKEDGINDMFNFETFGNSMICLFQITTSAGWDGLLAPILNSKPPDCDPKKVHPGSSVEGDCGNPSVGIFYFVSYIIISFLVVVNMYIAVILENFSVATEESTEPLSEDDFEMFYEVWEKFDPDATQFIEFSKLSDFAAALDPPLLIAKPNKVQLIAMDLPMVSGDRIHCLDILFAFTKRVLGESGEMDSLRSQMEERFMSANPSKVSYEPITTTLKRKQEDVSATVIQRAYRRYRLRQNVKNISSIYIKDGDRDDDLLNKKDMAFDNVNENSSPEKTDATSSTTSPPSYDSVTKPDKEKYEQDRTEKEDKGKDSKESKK

hNav1.3 = hNav1.3 (Homo sapiens, UniProt Q9NY46); details: Table 26; IonWorks Quattro, use; […]; read-out: IWQ Use Nav1.3
Sequence of hNav1.3 (Q9NY46 whole entry, looked up): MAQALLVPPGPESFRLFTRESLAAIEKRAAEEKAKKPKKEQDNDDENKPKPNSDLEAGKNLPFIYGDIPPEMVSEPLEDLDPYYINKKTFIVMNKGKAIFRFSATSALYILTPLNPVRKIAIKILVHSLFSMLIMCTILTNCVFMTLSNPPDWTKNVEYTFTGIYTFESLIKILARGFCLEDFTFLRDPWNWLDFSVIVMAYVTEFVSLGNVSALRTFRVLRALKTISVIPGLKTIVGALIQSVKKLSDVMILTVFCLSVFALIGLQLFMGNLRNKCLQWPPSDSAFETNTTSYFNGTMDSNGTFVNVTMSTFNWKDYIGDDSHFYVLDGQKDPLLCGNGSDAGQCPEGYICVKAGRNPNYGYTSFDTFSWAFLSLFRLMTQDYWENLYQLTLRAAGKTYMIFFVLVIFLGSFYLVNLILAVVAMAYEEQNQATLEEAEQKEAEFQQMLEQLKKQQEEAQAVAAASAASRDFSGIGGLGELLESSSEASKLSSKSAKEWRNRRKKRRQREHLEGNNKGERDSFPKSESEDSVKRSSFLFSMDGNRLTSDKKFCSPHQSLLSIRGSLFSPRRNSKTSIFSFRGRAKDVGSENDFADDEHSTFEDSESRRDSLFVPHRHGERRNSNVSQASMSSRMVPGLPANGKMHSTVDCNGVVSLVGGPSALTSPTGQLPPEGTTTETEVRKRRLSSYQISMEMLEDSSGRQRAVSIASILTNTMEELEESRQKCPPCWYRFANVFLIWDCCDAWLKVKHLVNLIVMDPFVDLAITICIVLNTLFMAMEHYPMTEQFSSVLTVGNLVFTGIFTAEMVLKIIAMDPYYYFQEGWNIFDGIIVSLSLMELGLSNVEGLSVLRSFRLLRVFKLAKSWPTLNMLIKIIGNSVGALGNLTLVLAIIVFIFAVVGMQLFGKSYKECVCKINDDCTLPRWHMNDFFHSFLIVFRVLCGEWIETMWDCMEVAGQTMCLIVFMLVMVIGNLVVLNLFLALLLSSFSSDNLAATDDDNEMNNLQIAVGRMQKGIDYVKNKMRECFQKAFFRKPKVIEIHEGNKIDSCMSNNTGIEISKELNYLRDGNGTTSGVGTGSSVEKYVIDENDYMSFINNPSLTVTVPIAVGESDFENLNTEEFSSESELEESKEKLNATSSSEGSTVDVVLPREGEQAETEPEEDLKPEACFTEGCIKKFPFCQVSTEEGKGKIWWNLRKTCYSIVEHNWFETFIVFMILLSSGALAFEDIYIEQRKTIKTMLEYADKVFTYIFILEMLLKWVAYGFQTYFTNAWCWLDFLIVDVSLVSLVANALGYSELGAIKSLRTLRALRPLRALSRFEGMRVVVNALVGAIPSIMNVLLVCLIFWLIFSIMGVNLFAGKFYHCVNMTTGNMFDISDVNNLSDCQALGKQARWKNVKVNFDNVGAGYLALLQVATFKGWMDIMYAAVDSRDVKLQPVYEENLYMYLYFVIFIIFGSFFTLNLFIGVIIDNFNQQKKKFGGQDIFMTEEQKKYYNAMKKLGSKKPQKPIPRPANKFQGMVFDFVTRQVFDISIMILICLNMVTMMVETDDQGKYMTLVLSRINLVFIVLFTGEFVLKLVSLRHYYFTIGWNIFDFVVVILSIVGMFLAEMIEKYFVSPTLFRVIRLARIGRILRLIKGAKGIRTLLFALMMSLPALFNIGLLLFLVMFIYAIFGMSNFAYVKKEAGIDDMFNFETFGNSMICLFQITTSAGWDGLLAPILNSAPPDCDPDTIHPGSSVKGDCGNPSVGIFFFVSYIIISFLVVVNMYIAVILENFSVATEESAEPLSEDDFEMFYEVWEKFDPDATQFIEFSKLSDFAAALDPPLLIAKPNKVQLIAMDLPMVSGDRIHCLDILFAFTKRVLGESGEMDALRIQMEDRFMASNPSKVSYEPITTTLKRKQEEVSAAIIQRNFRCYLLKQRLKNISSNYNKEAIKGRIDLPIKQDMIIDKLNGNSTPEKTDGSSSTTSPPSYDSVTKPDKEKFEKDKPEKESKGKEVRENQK

| SMILES | IC50 (hNav1.5) | IC50 (hNav1.7) | IC50 (hNav1.3) |
| --- | --- | --- | --- |
| CC[C@H](C)[C@@H]1NC(=O)[C@@H]2CSSC[C@@H]3NC(=O)[C@H](C(C)C)NC(=O)[C@H](CC(C)C)NC(=O)[C@H](CC(N)=O)NC(=O)[C@@H]4CCCN4C(=O)[C@H](CCCNC(=N)N)NC(=O)[C@H](CSSC[C@H](NC(=O)[C@@H](N)CC(=O)O)C(=O)N[C@@H](CC(C)C)C(=O)NCC(=O)N[C@@H](Cc4ccccc4)C(=O)N[C@@H](CCSC)C(=O)N[C@@H](CCCNC(=N)N)C(=O)N[C@@H](CCCCN)C(=O)N2)NC(=O)[C@H](CSSC[C@@H](C(=O)N[C@@H](CCCCN)C(=O)N[C@@H](Cc2ccc(O)cc2)C(=O)N(C)[C@@H](Cc2c[nH]c4ccccc24)C(=O)N[C@@H](Cc2ccccc2)C(N)=O)NC(=O)[C@H](Cc2c[nH]c4ccccc24)NC(=O)[C@H](CCCCN)NC(=O)[C@H](Cc2c[nH]cn2)NC(=O)[C@H]([C@@H](C)O)NC(=O)[C@H](CCCNC(=N)N)NC(=O)[C@H](CO)NC3=O)NC(=O)[C@H](CCCCN)NC(=O)[C@H](CC(=O)O)NC(=O)[C@H](CC(N)=O)NC(=O)[C@H](CC(=O)O)NC(=O)[C@@H]2CCCN2C1=O [compound 389] (H-DCLGFMRKCIPDNDKCCRPNLVCSRTHKWCKY[NMeW]F-NH2; disulfide 2-17, 9-23, 16-30) | > 5 µM | 350 nM | 290 nM |
| CC[C@H](C)[C@@H]1NC(=O)[C@@H]2CSSC[C@@H]3NC(=O)[C@H](C(C)C)NC(=O)[C@H](CC(C)C)NC(=O)[C@H](CC(N)=O)NC(=O)[C@@H]4CCCN4C(=O)[C@H](CCCNC(=N)N)NC(=O)[C@H](CSSC[C@H](NC(=O)[C@@H](N)CC(=O)O)C(=O)N[C@@H](CC(C)C)C(=O)NCC(=O)N[C@@H](Cc4ccccc4)C(=O)N[C@@H](CCSC)C(=O)N[C@@H](CCCNC(=N)N)C(=O)N[C@@H](CCCCN)C(=O)N2)NC(=O)[C@H](CSSC[C@@H](C(=O)N[C@@H](CCCCN)C(=O)N[C@@H](Cc2ccc(O)cc2)C(=O)N[C@@H](Cc2ccccc2)C(=O)N[C@@H](Cc2ccccc2)C(N)=O)NC(=O)[C@H](Cc2c[nH]c4ccccc24)NC(=O)[C@H](CCCCN)NC(=O)[C@H](Cc2c[nH]cn2)NC(=O)[C@H]([C@@H](C)O)NC(=O)[C@H](CCCNC(=N)N)NC(=O)[C@H](CO)NC3=O)NC(=O)[C@H](CCCCN)NC(=O)[C@H](CC(=O)O)NC(=O)[C@H](CC(N)=O)NC(=O)[C@H](CC(=O)O)NC(=O)[C@@H]2CCCN2C1=O [compound 390] (H-DCLGFMRKCIPDNDKCCRPNLVCSRTHKWCKYFF-NH2; disulfide 2-17, 9-23, 16-30) | 8.66 µM | 60 nM | 40 nM |
| CC[C@H](C)[C@@H]1NC(=O)[C@@H]2CSSC[C@@H]3NC(=O)[C@H](C(C)C)NC(=O)[C@H](CC(C)C)NC(=O)[C@H](CC(N)=O)NC(=O)[C@@H]4CCCN4C(=O)[C@H](CCCNC(=N)N)NC(=O)[C@H](CSSC[C@H](NC(=O)[C@@H](N)CC(=O)O)C(=O)N[C@@H](CC(C)C)C(=O)NCC(=O)N[C@@H](Cc4ccccc4)C(=O)N[C@@H](CCSC)C(=O)N[C@@H](CCCNC(=N)N)C(=O)N[C@@H](CCCCN)C(=O)N2)NC(=O)[C@H](CSSC[C@@H](C(=O)N[C@@H](CCCCN)C(=O)N[C@@H](Cc2ccc(O)cc2)C(=O)N[C@@H](CCSC)C(=O)N[C@@H](Cc2ccccc2)C(N)=O)NC(=O)[C@H](Cc2c[nH]c4ccccc24)NC(=O)[C@H](CCCCN)NC(=O)[C@H](Cc2c[nH]cn2)NC(=O)[C@H]([C@@H](C)O)NC(=O)[C@H](CCCNC(=N)N)NC(=O)[C@H](CO)NC3=O)NC(=O)[C@H](CCCCN)NC(=O)[C@H](CC(=O)O)NC(=O)[C@H](CC(N)=O)NC(=O)[C@H](CC(=O)O)NC(=O)[C@@H]2CCCN2C1=O [compound 391] (H-DCLGFMRKCIPDNDKCCRPNLVCSRTHKWCKYMF-NH2; disulfide 2-17, 9-23, 16-30) | 15.1 µM | 70 nM | 80 nM |
| CC[C@H](C)[C@@H]1NC(=O)[C@@H]2CSSC[C@@H]3NC(=O)[C@H](C(C)C)NC(=O)[C@H](CC(C)C)NC(=O)[C@H](CC(N)=O)NC(=O)[C@@H]4CCCN4C(=O)[C@H](CCCNC(=N)N)NC(=O)[C@H](CSSC[C@H](NC(=O)[C@@H](N)CC(=O)O)C(=O)N[C@@H](CC(C)C)C(=O)NCC(=O)N[C@@H](Cc4ccccc4)C(=O)N[C@@H](CCSC)C(=O)N[C@@H](CCCNC(=N)N)C(=O)N[C@@H](CCCCN)C(=O)N2)NC(=O)[C@H](CSSC[C@@H](C(=O)N[C@@H](CCCCN)C(=O)N[C@@H](Cc2ccc(O)cc2)C(=O)N[C@@H](Cc2c[nH]cn2)C(=O)N[C@@H](Cc2ccccc2)C(N)=O)NC(=O)[C@H](Cc2c[nH]c4ccccc24)NC(=O)[C@H](CCCCN)NC(=O)[C@H](Cc2c[nH]cn2)NC(=O)[C@H]([C@@H](C)O)NC(=O)[C@H](CCCNC(=N)N)NC(=O)[C@H](CO)NC3=O)NC(=O)[C@H](CCCCN)NC(=O)[C@H](CC(=O)O)NC(=O)[C@H](CC(N)=O)NC(=O)[C@H](CC(=O)O)NC(=O)[C@@H]2CCCN2C1=O [compound 392] (H-DCLGFMRKCIPDNDKCCRPNLVCSRTHKWCKYHF-NH2; disulfide 2-17, 9-23, 16-30) | 8.16 µM | 20 nM | 10 nM |
| CC[C@H](C)[C@@H]1NC(=O)[C@@H]2CSSC[C@@H]3NC(=O)[C@H](C(C)C)NC(=O)[C@H](CC(C)C)NC(=O)[C@H](CC(N)=O)NC(=O)[C@@H]4CCCN4C(=O)[C@H](CCCNC(=N)N)NC(=O)[C@H](CSSC[C@H](NC(=O)[C@@H](N)CC(=O)O)C(=O)N[C@@H](CC(C)C)C(=O)NCC(=O)N[C@@H](Cc4ccccc4)C(=O)N[C@@H](CCSC)C(=O)N[C@@H](CCCNC(=N)N)C(=O)N[C@@H](CCCCN)C(=O)N2)NC(=O)[C@H](CSSC[C@@H](C(=O)N[C@@H](CCCCN)C(=O)N[C@@H](Cc2ccc(O)cc2)C(=O)N[C@H](C(=O)N[C@@H](Cc2ccccc2)C(N)=O)c2ccccc2)NC(=O)[C@H](Cc2c[nH]c4ccccc24)NC(=O)[C@H](CCCCN)NC(=O)[C@H](Cc2c[nH]cn2)NC(=O)[C@H]([C@@H](C)O)NC(=O)[C@H](CCCNC(=N)N)NC(=O)[C@H](CO)NC3=O)NC(=O)[C@H](CCCCN)NC(=O)[C@H](CC(=O)O)NC(=O)[C@H](CC(N)=O)NC(=O)[C@H](CC(=O)O)NC(=O)[C@@H]2CCCN2C1=O [compound 393] (H-DCLGFMRKCIPDNDKCCRPNLVCSRTHKWCKY[Phg]F-NH2; disulfide 2-17, 9-23, 16-30) | 7.63 µM | 20 nM | 40 nM |
| CC[C@H](C)[C@@H]1NC(=O)[C@@H]2CSSC[C@@H]3NC(=O)[C@H](C(C)C)NC(=O)[C@H](CC(C)C)NC(=O)[C@H](CC(N)=O)NC(=O)[C@@H]4CCCN4C(=O)[C@H](CCCNC(=N)N)NC(=O)[C@H](CSSC[C@H](NC(=O)[C@@H](N)CC(=O)O)C(=O)N[C@@H](CC(C)C)C(=O)NCC(=O)N[C@@H](Cc4ccccc4)C(=O)N[C@@H](CCSC)C(=O)N[C@@H](CCCNC(=N)N)C(=O)N[C@@H](CCCCN)C(=O)N2)NC(=O)[C@H](CSSC[C@@H](C(=O)N[C@@H](CCCCN)C(=O)N[C@@H](Cc2ccc(O)cc2)C(=O)N[C@@H](CC(N)=O)C(=O)N[C@@H](Cc2ccccc2)C(N)=O)NC(=O)[C@H](Cc2c[nH]c4ccccc24)NC(=O)[C@H](CCCCN)NC(=O)[C@H](Cc2c[nH]cn2)NC(=O)[C@H]([C@@H](C)O)NC(=O)[C@H](CCCNC(=N)N)NC(=O)[C@H](CO)NC3=O)NC(=O)[C@H](CCCCN)NC(=O)[C@H](CC(=O)O)NC(=O)[C@H](CC(N)=O)NC(=O)[C@H](CC(=O)O)NC(=O)[C@@H]2CCCN2C1=O [compound 394] (H-DCLGFMRKCIPDNDKCCRPNLVCSRTHKWCKYNF-NH2; disulfide 2-17, 9-23, 16-30) | 7.94 µM | 360 nM | 70 nM |
| CC[C@H](C)[C@@H]1NC(=O)[C@@H]2CSSC[C@@H]3NC(=O)[C@H](C(C)C)NC(=O)[C@H](CC(C)C)NC(=O)[C@H](CC(N)=O)NC(=O)[C@@H]4CCCN4C(=O)[C@H](CCCNC(=N)N)NC(=O)[C@H](CSSC[C@H](NC(=O)[C@@H](N)CC(=O)O)C(=O)N[C@@H](CC(C)C)C(=O)NCC(=O)N[C@@H](Cc4ccccc4)C(=O)N[C@@H](CCSC)C(=O)N[C@@H](CCCNC(=N)N)C(=O)N[C@@H](CCCCN)C(=O)N2)NC(=O)[C@H](CSSC[C@@H](C(=O)N[C@@H](CCCCN)C(=O)N[C@@H](Cc2ccc(O)cc2)C(=O)N[C@@H](CC(=O)O)C(=O)N[C@@H](Cc2ccccc2)C(N)=O)NC(=O)[C@H](Cc2c[nH]c4ccccc24)NC(=O)[C@H](CCCCN)NC(=O)[C@H](Cc2c[nH]cn2)NC(=O)[C@H]([C@@H](C)O)NC(=O)[C@H](CCCNC(=N)N)NC(=O)[C@H](CO)NC3=O)NC(=O)[C@H](CCCCN)NC(=O)[C@H](CC(=O)O)NC(=O)[C@H](CC(N)=O)NC(=O)[C@H](CC(=O)O)NC(=O)[C@@H]2CCCN2C1=O [compound 395] (H-DCLGFMRKCIPDNDKCCRPNLVCSRTHKWCKYDF-NH2; disulfide 2-17, 9-23, 16-30) | 8.79 µM | 770 nM | 170 nM |
| CC[C@H](C)[C@@H]1NC(=O)[C@@H]2CSSC[C@@H]3NC(=O)[C@H](C(C)C)NC(=O)[C@H](CC(C)C)NC(=O)[C@H](CC(N)=O)NC(=O)[C@@H]4CCCN4C(=O)[C@H](CCCNC(=N)N)NC(=O)[C@H](CSSC[C@H](NC(=O)[C@@H](N)CC(=O)O)C(=O)N[C@@H](CC(C)C)C(=O)NCC(=O)N[C@@H](Cc4ccccc4)C(=O)N[C@@H](CCSC)C(=O)N[C@@H](CCCNC(=N)N)C(=O)N[C@@H](CCCCN)C(=O)N2)NC(=O)[C@H](CSSC[C@@H](C(=O)N[C@@H](CCCCN)C(=O)N[C@@H](Cc2ccc(O)cc2)C(=O)N[C@H](C(=O)N[C@@H](Cc2ccccc2)C(N)=O)[C@@H](C)O)NC(=O)[C@H](Cc2c[nH]c4ccccc24)NC(=O)[C@H](CCCCN)NC(=O)[C@H](Cc2c[nH]cn2)NC(=O)[C@H]([C@@H](C)O)NC(=O)[C@H](CCCNC(=N)N)NC(=O)[C@H](CO)NC3=O)NC(=O)[C@H](CCCCN)NC(=O)[C@H](CC(=O)O)NC(=O)[C@H](CC(N)=O)NC(=O)[C@H](CC(=O)O)NC(=O)[C@@H]2CCCN2C1=O [compound 396] (H-DCLGFMRKCIPDNDKCCRPNLVCSRTHKWCKYTF-NH2; disulfide 2-17, 9-23, 16-30) | 3.78 µM | 20 nM | 40 nM |
